The record followed here is paper PMC9609317, “Evaluation of Metabolism of a Defined Pesticide Mixture through Multiple In Vitro Liver Models” (Toxics, 2022).

In series [1] the test system is induced pluripotent stem cell-derived hepatocytes (iHep) suspension. The series can be described thus: iHep suspension, nontargeted IMS-MS analysis (clearance, metabolite formation, mass balance). It counts as in vitro ADME, human. Particulars: for CLHep average, Nontargeted Analyses (IMS-MS): 1µM mixture; for Level of metabolism through nontargeted methods: % remaining by IMS-MS. The method, then:
(§1) Suspension assays using iHep were performed as previously detailed with slight modification. In brief, pre-differentiated iHep were suspended in iHep maintenance media and adjusted to the cell concentration of 1 × 10^6 cells/mL. A portion of the cell working stock was heated at 95 °C for five minutes to serve as negative control. Five hundred microliters of the chemical stock (20 chemicals, 2 or 10 µM each) were spiked in 500 µL of the cell working stock or heat-inactivated cell control to a final cell density of 5 × 10^5 cells/mL. Fifty microliters were removed subsequently at 0, 60, 120, and 240 min to individual 1.5 mL Eppendorf tubes for further sample extraction detailed below. Each experimental condition was replicated three times.
All nontargeted analyses were performed using a 6560 IMS-QTOF MS (Agilent Technologies) as detailed previously. All individual standards for pesticide parent compounds (n = 20) and known metabolites (n = 10) were directly injected in triplicate into the electrospray ionization (ESI) source (positive and negative mode) and atmospheric pressure photo-ionization (APPI, negative mode only) to obtain collision cross section (CCS) and mass-to-charge ratio (m/z) values. Blanks were injected between standards to reduce the likelihood of carryover. For sample analyses, ESI was chosen as the optimal source to detect analytes in either positive or negative mode. During IMS-MS analyses, ions were passed through the inlet glass capillary, focused by a high-pressure ion funnel, and accumulated in an ion funnel trap. Next, ions were pulsed into the 78.24 cm-long IMS drift tube filled with nitrogen gas at a pressure of approximately 3.95 torr (527 Pa). Ions exiting the drift tube were refocused by a rear ion funnel prior to quadrupole time-of-flight (QTOF) MS detection. Detailed instrumental settings in ESI mode can be found in Table S1. Prior to instrumental analysis, the IMS-MS was tuned and a mass calibration was performed using Agilent Tune Mix from the manufacturer (Cat No.: G2421-60001, Agilent Technologies).
In vitro hepatocyte clearance (Clin vitro) of each chemical was estimated by substrate depletion approach assuming first-order kinetics for compound elimination: Clin vitro = kV/N, where k = first-order elimination rate constant, V = incubation volume, and N = number of cells in the incubation. Clin vitro was further scaled up to the intrinsic hepatocyte clearance (Clint) according to the equation [38]:Clint = Clin vitro × HPGL × Vl(1) where HPGL = hepatocytes per gram liver (137 × 10^6 cells/g) and Vl = volume of the whole liver (1820 g).

Series [2] has the same test system. Briefly: In vitro hepatocyte clearance in iHep suspension, targeted LC-MS/MS and GC-MS/MS. The format is in vitro ADME, human. Particulars: 1 µM equimolar mixture, approximate values. The method, then:
as §1
Sample extraction procedures and chromatographic conditions were previously reported in [34]. In brief, each sample (50 µL) was spiked with 10 µL of 10 µM internal standards, mixed with 100 µL of chilled acetonitrile, and then centrifuged at 10,000× g for 5 min. The supernatant was dried under vacuum using SpeedVac (Savant SPD1010, Beckman Coulter, Brea, CA, USA) and reconstituted with 50 µL of aqueous mobile phase prior to analyses. LC-MS/MS analysis was performed using 1290 Infinity II LC and 6470 triple quadrupole mass spectrometer (both instruments from Agilent Technologies, Santa Clara, CA, USA). Sample extract (10 µL) was chromatographed on a ZORBAX SSHD Eclipse Plus C18 column (3.0 × 50 mm, 1.8 µm, Cat No.: 959757-302; Agilent Technologies) with a guard column (2.1 × 5 mm, 1.8 µm, Cat No.: 821725-901; Agilent Technologies), and ionized using electrospray ionization. Analytical response was acquired in both positive and negative modes.
For positive ion compounds, mobile phases consisted of 0.1% formic acid in water (A) and 0.1% formic acid in methanol (B) using the following gradient: 2% B held for 1 min, B increased to 80% by 3 min, B increased to 95% by 4 min, B decreased to 2% by 5 min and held for 3 min for a total run time of 8 min per sample at a flow rate of 0.4 mL/min. For negative ion compounds, the LC gradient and flow rate were the same as in positive mode, except that mobile phase A was water and mobile phase B was acetonitrile.
Fifty microliters of media sample were spiked with 10 µL of 10 µM internal standards, mixed with 50 µL of methanol and 200 µL of pentane: diethyl ether (1:1 v/v), vortexed briefly, and then centrifuged at 600× g for 5 min. Organic layer supernatants were transferred to a 2 mL amber vial and concentrated under nitrogen prior to GC analysis. Detection of analytes was achieved using a 7890B GC and 7010B triple quadrupole mass spectrometer (both from Agilent Technologies). Samples were injected (1 µL) in splitless mode. Analytes were separated with a VF-5ms GC column (60 m × 250 µm × 0.25 µm, Cat No.: CP8960; Agilent Technologies) and ionized using electron ionization. The column head pressure was set at 21.5 psi (148,237 Pa) with a constant flow rate at 1.2 mL/min using helium gas. Initial column temperature was held at 70 °C for 5 min, increased to 150 °C at 50 °C/min, ramped to 280 °C at 4 °C/min, and then held […]. The total run time was 42.1 min. The injector temperature was set at 250 °C. The ion source and auxiliary transfer line temperatures were 300 °C. Electron multiplier voltage was set at 1884 V. Ultra-high purity nitrogen gas was used as the collision gas for all MS/MS experiments, and collision gas pressure was set at 16.8 psi (115,832 Pa).
In vitro hepatocyte clearance (Clin vitro) of each chemical was estimated by substrate depletion approach assuming first-order kinetics for compound elimination: Clin vitro = kV/N, where k = first-order elimination rate constant, V = incubation volume, and N = number of cells in the incubation. […]

Molecules are shown by their SMILES.

`O=[N+]([O-])c1ccc(O)c([N+](=O)[O-])c1` [2,4-Dinitrophenol]: the “CLHep average, Nontargeted Analyses (IMS-MS)” value (from here on “CLHep average”) in series [1] is given as 8.886 µL/min/106 hepatocytes. For the same compound, the “Level of metabolism through nontargeted methods” value (“Level” below) in series [1] (1 µM mixture) is listed as “high levels of metabolism”. For the same compound, in series [2], the “Clearance rate in suspension cultures” value lay within 5 to 14 µL/min/10^6 hepatocytes.
On the same counts, the results for `COP(=S)(OC)SCn1nnc2ccccc2c1=O` [Azinphos-methyl] are 8.987 µL/min/106 hepatocytes, “high levels of metabolism” and 5 to 14 µL/min/10^6 hepatocytes.
The like results for `CCOP(=S)(OCC)Oc1nc(Cl)c(Cl)cc1Cl` [Chlorpyrifos] were, in that order, 7.82 µL/min/106 hepatocytes, “high levels of metabolism” and 5 to 14 µL/min/10^6 hepatocytes.
For `CCOP(=S)(OCC)Oc1cc(C)nc(C(C)C)n1` [Diazinon], in series [1], the “CLHep average” value was 2.285 µL/min/106 hepatocytes. Further, the “Clearance rate in suspension cultures” value in series [2] was 5 to 14 µL/min/10^6 hepatocytes.
`CCOP(=S)(OCC)SCCSCC` [Disulfoton]: the “CLHep average” value in series [1] is 5.305 µL/min/106 hepatocytes. The “Level” value in series [1] (1 µM mixture) was “high levels of metabolism”. Further, in series [2], the “Clearance rate in suspension cultures” value fell in the range of 5 to 14 µL/min/10^6 hepatocytes.
As for `CCOP(=S)(OCC)SCSP(=S)(OCC)OCC` [Ethion], the “CLHep average” value in series [1] was 5.216 µL/min/106 hepatocytes. The “Level” value in series [1] (1 µM mixture) was “high levels of metabolism”. Further, the “Clearance rate in suspension cultures” value in series [2] is listed as 5 to 14 µL/min/10^6 hepatocytes.
As to `CCOP(O)(=S)OCC` [diethylthiophosphate], in series [1] (1 µM mixture, relative abundance among the five detected metabolites), the “Metabolite formation (IMS-MS abundance)” value is “formed at the highest amount”.
